For data set [1], the target named is endogenous β-glucuronidase, human lung microsomes (Homo sapiens, UniProt P08236). Description: Estradiol glucuronide hydrolysis by human lung microsomes. Conditions: lung microsomes 0.5 mg/ml; without saccharolactone; E-3-G 100 μM, E-17-G 200 μM; n=3.
Data set [2] concerns pooled human liver microsomes (pHLMs). Conditions: pHLMs 0.5 mg protein/ml; β-estradiol 100 μM and UDPGA; mean of triplicate.
A further data set deals with human kidney microsomes. Description: Estradiol glucuronide formation in 6 hours by human kidney microsomes. It is filed as in vitro ADME. Conditions: for Apparent nmoles formed in 6 hours: kidney microsomes 0.5 mg protein/ml, β-estradiol 100 μM and UDPGA, mean of triplicate; for Predicted actual nmoles formed in 6 hours: kidney microsomes, apparent formed plus degraded.

The nature of data set [3]: Estradiol glucuronide stability in phosphate buffer. Conditions: 50 mM phosphate buffer pH 7.5, 37 °C, no enzyme; without saccharolactone; E-3-G 100 μM, E-17-G 200 μM; n=3.
For data set [4], the target named is T1, endogenous β-glucuronidase, pooled human liver microsomes (Homo sapiens, UniProt P08236).
T1 sequence (P08236 23-651): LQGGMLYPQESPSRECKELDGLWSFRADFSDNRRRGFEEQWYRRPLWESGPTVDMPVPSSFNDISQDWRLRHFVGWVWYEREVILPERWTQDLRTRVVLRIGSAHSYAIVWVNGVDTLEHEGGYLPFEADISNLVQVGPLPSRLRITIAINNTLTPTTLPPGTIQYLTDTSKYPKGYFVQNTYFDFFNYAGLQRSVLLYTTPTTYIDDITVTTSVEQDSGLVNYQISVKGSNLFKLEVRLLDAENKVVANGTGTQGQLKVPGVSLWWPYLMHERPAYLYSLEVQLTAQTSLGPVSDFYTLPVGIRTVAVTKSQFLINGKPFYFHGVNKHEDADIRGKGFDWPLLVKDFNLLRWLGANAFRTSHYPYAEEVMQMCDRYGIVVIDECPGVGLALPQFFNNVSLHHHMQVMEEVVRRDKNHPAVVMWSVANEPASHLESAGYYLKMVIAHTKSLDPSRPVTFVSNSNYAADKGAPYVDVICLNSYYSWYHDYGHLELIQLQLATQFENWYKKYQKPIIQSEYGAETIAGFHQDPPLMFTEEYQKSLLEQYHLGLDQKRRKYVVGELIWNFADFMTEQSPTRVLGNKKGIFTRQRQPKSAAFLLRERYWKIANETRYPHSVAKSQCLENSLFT
Description: Estradiol glucuronide hydrolysis. As to conditions: for percent glucuronide remaining after 6 hours: pHLM 0.5 mg/ml, E-3-G 100 μM, E-17-G 200 μM, n=3; for Nmoles degraded in 6 hours: pHLMs 0.5 mg protein/ml, estradiol glucuronide without UDPGA; for Nmoles degraded as a % of nmoles formed: pHLMs.

Data set [5] concerns endogenous β-glucuronidase, human intestinal microsomes. Description: Estradiol glucuronide hydrolysis by human intestinal microsomes. As to conditions: for Nmoles degraded as a % of nmoles formed: intestinal microsomes; for Nmoles degraded in 6 hours: intestinal microsomes 0.5 mg protein/ml, estradiol glucuronide without UDPGA; for percent glucuronide remaining after 6 hours: intestine microsomes 0.5 mg/ml, without saccharolactone, E-3-G 100 μM, E-17-G 200 μM, n=3.

Data set [6] relates to endogenous β-glucuronidase, human kidney microsomes. Description: Estradiol glucuronide hydrolysis by human kidney microsomes. Conditions: for Nmoles degraded as a % of nmoles formed: kidney microsomes; for Nmoles degraded in 6 hours: kidney microsomes 0.5 mg protein/ml, estradiol glucuronide without UDPGA; for percent glucuronide remaining after 6 hours: kidney microsomes 0.5 mg/ml, without saccharolactone, E-3-G 100 μM, E-17-G 200 μM, n=3.

Data set [7] concerns endogenous β-glucuronidase, HEK293 vector control. Description: Estradiol glucuronide hydrolysis by HEK293 vector control cell microsomes. The data set is classed as in vitro ADME, human. As to conditions: HEK293 control 0.25 mg/ml; without saccharolactone; E-3-G 100 μM, E-17-G 200 μM; n=3.
Data set [8] has as its system human intestinal microsomes. Description: Estradiol glucuronide formation in 6 hours by human intestinal microsomes. As to conditions: for Apparent nmoles formed in 6 hours: intestinal microsomes 0.5 mg protein/ml, β-estradiol 100 μM and UDPGA, mean of triplicate; for Predicted actual nmoles formed in 6 hours: intestinal microsomes, apparent formed plus degraded. The data set is classed as in vitro ADME.

In another data set the test system is microsomes. As to conditions: 50 μg alamethicin per mg microsomal protein, ref Fisher et al 2000; cited from earlier work.

Marks after values point to notes of the source that are not given here.

Consider `C[C@]12CC[C@@H]3c4ccc(O)cc4CC[C@H]3[C@@H]1CC[C@@H]2O[C@@H]1O[C@H](C(=O)O)[C@@H](O)[C@H](O)[C@H]1O` [E-17-G, estradiol 17-glucuronide], for which the “percent glucuronide remaining after 6 hours” value (“percent glucuronide remaining” below) is reported as 92±6% in [1]; 102±13% in data set [3]; 84±3% in data set [4] (with 10 mM saccharolactone); 86±2 ^b % in [4] (without saccharolactone); 110±4 ^b % in data set [5]; 104±3% in data set [6]. For the same molecule, in data set [7], the “percent glucuronide remaining” value is listed as 104±3%. For the same molecule, the entries for the “Apparent nmoles formed in 6 hours” value (in [2]; with human kidney microsomes; in [8]) were 1.23 nmol, 1.11 nmol and 0.58 nmol, respectively. Also, the “Predicted actual nmoles formed in 6 hours” value in the data set with human kidney microsomes is 1.11 nmol; in [8], 0.58 nmol. Also, the “Nmoles degraded in 6 hours” value turned out to be 0.29 nmol in data set [4], 0 nmol in data set [5] and 0 nmol in [6]. The “Nmoles degraded as a % of nmoles formed” value in [4] (listed as Estradiol-17-Glucuronide) worked out at 19%; in data set [4] (listed as estradiol-17 glucuronide) it was 19%; in data set [5], 0%; in data set [6] it was 0%.
Turning to alamethicin, the “conjugation rate relative to that in absence of alamethicin” value in the data set on microsomes is listed as 2 to 3 times.
In the case of `C[C@]12CC[C@@H]3c4ccc(O[C@@H]5O[C@H](C(=O)O)[C@@H](O)[C@H](O)[C@H]5O)cc4CC[C@H]3[C@@H]1CC[C@@H]2O` [E-3-G, estradiol 3-glucuronide], the “percent glucuronide remaining” value in [1] is listed as 85±6%; in data set [3], 101±5%; in [4] (with 10 mM saccharolactone) it was 84±2 ^a %; in data set [4] (without saccharolactone), 82±1 ^a^, ^b %; in data set [5], 104±3%; in [6], 104±1 ^a^, ^b %. Also, the “percent glucuronide remaining” value in data set [7] came out at 102±4%. Moreover, the “Apparent nmoles formed in 6 hours” value was determined as 3.51 nmol in data set [2], 2.99 nmol with human kidney microsomes and 16.7 nmol in data set [8]. For the same molecule, the entries for the “Predicted actual nmoles formed in 6 hours” value (with human kidney microsomes; in data set [8]) were 2.99 nmol and 16.7 nmol, respectively. For the same molecule, the “Nmoles degraded as a % of nmoles formed” value is listed as 9.30% in data set [4], 0% in [5] and 0% in [6]. Further, the “Nmoles degraded in 6 hours” value in data set [4] is 0.36 nmol; in data set [5], 0 nmol; in [6], 0 nmol.

(Values after PMC2697495 (The Journal of pharmacy and pharmacology, 2008).)
